The values below come from US9757353B2, “Methods of inducing anesthesia” (THE REGENTS OF THE UNIVERSITY OF CALIFORNIA, priority 2012, dated 2017).

Each structure is given as a SMILES string. pEC50: −log10 of the molar value.

One data set has as its target GABAA receptor. To be noted: read-out: EC50, positive modulator of GABAA receptor currents; cited from earlier work.
The test system of data set [1] is 3-transmembrane (TM3) and 4-transmembrane (TM4) receptors. To be noted: cited from earlier work.
In data set [2] the test system is GABAA-dependent pyramidal cells. To be noted: hippocampus; cited from earlier work.
In data set [3] the test system is NMDA-dependent CA1 neurons. To be noted: hippocampus; cited from earlier work.
In data set [4] the test system is heart, lung, kidney and liver tissues. As to the kind of experiment: Histopathology after anesthesia. To be noted: tissues collected 2 days later. In kind it is in vivo, mice.
The test system of another data set is ND4 mice. As to the kind of experiment: Loss of righting reflex in ND4 mice. In kind it is in vivo. To be noted: after 2 hours of anesthesia. On the procedure:
HFCP caused loss of righting reflex (a surrogate measure of unconsciousness) in 4 healthy ND4 mice at 1.0±0.2 (mean±SD) percent of 1 atmosphere. […] After 2 hours of anesthesia, mice were awake after about 1 minute of discontinuing HFCP administration. […] Despite a lack of NMDA receptor effects, 1,1,2,2,3,3,4-heptafluorocyclopentane is able to produce the desired pharmacologic endpoints of unconsciousness and immobility that appears similar to desirable effects produced by conventional agents.

The target in data set [5] is GABAA (α1β2γ2s) receptors (UniProt P14867+P18508+P63138). As to the kind of experiment: Oocyte two-electrode voltage clamp, GABAA receptor currents. To be noted: saturating aqueous concentration.
GABAA (α1β2γ2s) receptors, sequence (P14867 28-456): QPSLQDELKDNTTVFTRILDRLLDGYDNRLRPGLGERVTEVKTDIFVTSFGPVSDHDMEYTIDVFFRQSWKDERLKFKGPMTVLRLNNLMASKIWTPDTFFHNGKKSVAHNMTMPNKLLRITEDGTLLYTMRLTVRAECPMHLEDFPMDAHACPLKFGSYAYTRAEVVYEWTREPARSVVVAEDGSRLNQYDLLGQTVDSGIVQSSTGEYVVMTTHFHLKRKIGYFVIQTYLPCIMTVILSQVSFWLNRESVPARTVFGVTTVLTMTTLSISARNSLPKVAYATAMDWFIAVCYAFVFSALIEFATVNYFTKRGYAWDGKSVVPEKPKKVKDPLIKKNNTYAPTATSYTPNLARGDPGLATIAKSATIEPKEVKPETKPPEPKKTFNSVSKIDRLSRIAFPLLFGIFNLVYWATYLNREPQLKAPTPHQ
GABAA (α1β2γ2s) receptors, sequence (P63138 25-474 limits assumed): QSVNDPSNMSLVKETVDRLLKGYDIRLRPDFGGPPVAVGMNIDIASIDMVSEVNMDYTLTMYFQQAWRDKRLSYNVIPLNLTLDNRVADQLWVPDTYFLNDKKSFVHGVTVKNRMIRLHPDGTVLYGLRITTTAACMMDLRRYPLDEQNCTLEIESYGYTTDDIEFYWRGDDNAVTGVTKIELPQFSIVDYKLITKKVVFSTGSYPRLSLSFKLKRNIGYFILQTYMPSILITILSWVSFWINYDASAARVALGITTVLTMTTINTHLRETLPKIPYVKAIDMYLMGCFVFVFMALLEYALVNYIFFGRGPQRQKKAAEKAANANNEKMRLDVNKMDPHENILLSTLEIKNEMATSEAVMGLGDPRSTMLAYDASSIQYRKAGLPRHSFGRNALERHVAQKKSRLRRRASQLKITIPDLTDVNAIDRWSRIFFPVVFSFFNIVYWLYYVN
GABAA (α1β2γ2s) receptors, sequence (P18508 39-466): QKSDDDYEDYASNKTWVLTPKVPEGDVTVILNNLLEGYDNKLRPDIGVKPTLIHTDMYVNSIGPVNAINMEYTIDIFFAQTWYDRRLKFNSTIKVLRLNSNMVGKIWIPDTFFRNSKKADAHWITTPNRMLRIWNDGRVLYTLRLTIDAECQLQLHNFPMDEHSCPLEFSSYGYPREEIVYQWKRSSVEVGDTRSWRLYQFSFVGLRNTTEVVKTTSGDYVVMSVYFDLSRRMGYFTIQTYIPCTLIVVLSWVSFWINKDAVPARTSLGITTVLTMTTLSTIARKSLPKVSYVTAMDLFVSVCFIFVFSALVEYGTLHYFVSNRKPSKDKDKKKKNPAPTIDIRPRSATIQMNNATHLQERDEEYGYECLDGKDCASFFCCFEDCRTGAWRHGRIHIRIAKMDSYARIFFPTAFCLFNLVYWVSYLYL
Protocol: GABAA receptors were expressed using clones for the human GABAA α1 and the rat GABAA β2 and γ2s subunits in pCIS-II vectors. […] These plasmid ratios ensured incorporation of the γ-subunit into expressed receptors, as confirmed via receptor potentiation to 10 μM chlordiazepoxide or insensitivity to 10 μM zinc chloride during co-application with GABA. In separate oocytes, glutamate receptors were expressed using rat NMDA NR1 clones in a pCDNA3 vector and rat NMDA NR2A clones in a Bluescript vector. RNA encoding each subunit was prepared using a commercial transcription kit (T7 mMessage mMachine, Ambion, Austin, Tex.) was mixed in a 1:1 ratio, and 1-10 ng of total RNA was injected into oocytes and studied 1-2 days later.
Oocytes were studied in a 250 μL linear-flow perfusion chamber with solutions administered by syringe pump at 1.5 ml/min with gastight glass syringes and Teflon tubing. Oocyte GABAA currents were studied using standard two-electrode voltage clamping techniques at a holding potential of 80 mV using a 250 μL channel linear-flow perfusion chamber with solutions administered by syringe pump at 1.5 mL/min.
After FR perfusion for 5 min, oocytes were exposed to 30 sec FR-GABA followed by another 5 min FR washout; this was repeated until stable GABAA-elicited peaks were obtained. Next, FR containing a saturated solution of the study drug (Table 2)—or for gaseous study compounds a vapor pressure equal to 90% of barometric pressure with balance oxygen—was used to perfuse the oocyte chamber for 2 min followed by perfusion with a FR-GABA solution containing the identical drug concentration for 30 sec.
[formula] where ID and IB were the peak currents measured during agonist+drug and agonist baseline perfusions, respectively. When present, direct receptor activation by a drug was similarly calculated as a percent of the agonist response. Average current responses for each drug and channel were described by mean±SD. A lack of receptor response (cut-off) was defined as a <10% change from baseline current that was statistically indistinguishable from zero using a two-tailed Student t-test.
Data set [6] deals with some inhibitory potassium channels. The data set is described as follows: Inhibitory potassium channel modulation in vitro. Type of data set: cell-based.
A further data set has as its system glycine. The data set is described as follows: Glycine receptor modulation in vitro. Type of data set: cell-based.
In data set [7] the target is T1, NMDA (NR1/NR2A) receptors (Rattus norvegicus, UniProt P35439+Q00959).
T1 construct: expressed in transfected cells; host or cells: Xenopus laevis oocytes, injected with in vitro transcribed RNA (1:1), clones a gift from Dr. R. A. Harris
T1 sequence (Q00959 23-1464, other chains not shown): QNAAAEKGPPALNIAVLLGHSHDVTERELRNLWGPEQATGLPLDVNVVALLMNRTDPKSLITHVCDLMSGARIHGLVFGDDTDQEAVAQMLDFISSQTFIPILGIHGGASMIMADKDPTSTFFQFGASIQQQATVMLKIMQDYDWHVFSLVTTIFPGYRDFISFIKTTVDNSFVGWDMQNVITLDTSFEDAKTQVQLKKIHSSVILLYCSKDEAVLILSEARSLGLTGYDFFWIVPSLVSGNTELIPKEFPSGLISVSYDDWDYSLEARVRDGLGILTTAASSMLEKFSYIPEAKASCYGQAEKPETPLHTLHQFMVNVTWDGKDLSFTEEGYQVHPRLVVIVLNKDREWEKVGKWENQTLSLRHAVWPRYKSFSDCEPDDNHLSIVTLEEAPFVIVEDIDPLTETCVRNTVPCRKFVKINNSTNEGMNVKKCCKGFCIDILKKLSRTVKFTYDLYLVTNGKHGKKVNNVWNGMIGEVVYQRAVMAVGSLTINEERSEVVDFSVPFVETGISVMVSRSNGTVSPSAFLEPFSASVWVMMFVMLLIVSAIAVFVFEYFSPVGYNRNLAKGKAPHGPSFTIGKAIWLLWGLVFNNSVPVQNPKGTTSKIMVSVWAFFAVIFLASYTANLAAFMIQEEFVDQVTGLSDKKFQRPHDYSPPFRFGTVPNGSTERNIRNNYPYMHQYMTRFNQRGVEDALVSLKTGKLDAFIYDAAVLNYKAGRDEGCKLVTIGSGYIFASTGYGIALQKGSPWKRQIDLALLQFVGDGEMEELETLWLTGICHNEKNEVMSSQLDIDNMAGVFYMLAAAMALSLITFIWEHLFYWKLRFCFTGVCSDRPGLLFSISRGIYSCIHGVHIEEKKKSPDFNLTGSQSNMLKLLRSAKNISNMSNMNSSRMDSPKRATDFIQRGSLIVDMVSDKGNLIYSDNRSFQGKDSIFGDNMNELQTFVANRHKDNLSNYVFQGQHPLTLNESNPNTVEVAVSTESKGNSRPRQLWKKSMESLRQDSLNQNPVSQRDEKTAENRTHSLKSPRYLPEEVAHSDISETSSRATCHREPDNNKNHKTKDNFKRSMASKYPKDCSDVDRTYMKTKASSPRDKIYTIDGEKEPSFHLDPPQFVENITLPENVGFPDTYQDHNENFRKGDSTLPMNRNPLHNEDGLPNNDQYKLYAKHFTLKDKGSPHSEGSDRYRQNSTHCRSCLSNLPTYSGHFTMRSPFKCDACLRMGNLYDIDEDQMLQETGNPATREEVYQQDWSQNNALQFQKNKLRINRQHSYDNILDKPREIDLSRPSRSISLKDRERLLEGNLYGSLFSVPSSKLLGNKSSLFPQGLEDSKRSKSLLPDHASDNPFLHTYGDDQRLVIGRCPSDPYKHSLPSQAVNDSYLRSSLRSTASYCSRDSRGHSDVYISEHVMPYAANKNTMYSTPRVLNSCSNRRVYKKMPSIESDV
The data set is described as follows: Oocyte two-electrode voltage clamp, NMDA receptor currents. To be noted: saturating aqueous concentration. In kind it is cell-based. An excerpt: Methods: GABAA (α1β2γ2s) or NMDA (NR1/NR2A) receptors were expressed in oocytes and studied using standard two-electrode voltage clamp techniques. Hydrocarbons from 14 different organic functional groups were studied at saturated concentrations, and compounds within each group differed only by the carbon number at the ω-position or within a saturated ring. An effect on GABAA or NMDA receptors was defined as a 10% or greater reversible current change from baseline that was statistically different from zero.
Oocyte Collection and Receptor Expression. An ovary from tricaine-anesthetized Xenopus laevis frogs was surgically removed using a protocol approved by the Institutional Animal Care and Use Committee at the University of California, Davis. Following manual disruption of the ovarian lobule septae, the ovary was incubated in 0.2% Type I collagenase (Worthington Biochemical, Lakewood, N.J.) to defolliculate oocytes which were washed and stored in fresh and filtered modified Barth's solution composed of 88 mM NaCl, 1 mM KCl, 2.4 mM NaHCO3, 20 mM HEPES, 0.82 mM MgSO4, 0.33 mM Ca(NO3)2, 0.41 mM CaCl2, 5 mM sodium pyruvate, gentamycin, penicillin, streptomycin, and corrected to pH=7.4. All salts and antibiotics were A.C.S. grade (Fisher Scientific, Pittsburgh, Pa.).
Clones used were provided as a gift from Dr. R. A. Harris (University of Texas, Austin) and were sequenced and compared to references in the National Center for Biotechnology Information database to confirm the identity of each gene. GABAA receptors were expressed using clones for the human GABAA α1 and the rat GABAA β2 and γ2s subunits in pCIS-II vectors. […] In separate oocytes, glutamate receptors were expressed using rat NMDA NR1 clones in a pCDNA3 vector and rat NMDA NR2A clones in a Bluescript vector. RNA encoding each subunit was prepared using a commercial transcription kit (T7 mMessage mMachine, Ambion, Austin, Tex.) was mixed in a 1:1 ratio, and 1-10 ng of total RNA was injected into oocytes and studied 1-2 days later.
NMDA Receptor Electrophysiology Studies. […] Briefly, baseline perfusion solutions were the same as for GABAA with the substitution of equimolar BaCl2 for calcium salts and the addition of 0.1 mM EGTA; this constituted barium frog Ringer's solution (BaFR). Agonist solutions for NMDA studies also contained 0.1 mM glutamate (E) and 0.01 mM glycine (G) to constitute a BaFREG solution.
The syringe pump and perfusion chamber apparatus as well as the clamp holding potential and baseline-agonist exposure protocols were identical to that described for the GABAA studies. The same test compounds, concentrations, and preparative methods were used in NMDA voltage clamp studies as in the GABAA voltage clamp studies (Table 2).
Response Calculations and Data Analysis. Modulating drug responses were calculated as the percent of the control (baseline) peak as follows:
[formula] where ID and IB were the peak currents measured during agonist+drug and agonist baseline perfusions, respectively. When present, direct receptor activation by a drug was similarly calculated as a percent of the agonist response. […] A lack of receptor response (cut-off) was defined as a <10% change from baseline current that was statistically indistinguishable from zero using a two-tailed Student t-test.
(In general: In two-electrode clamp one electrode senses voltage and the other passes current.)

One may read the pEC50 as −log10 of the EC50, conventionally taken in molar units. In the case of `CC(C)c1cccc(C(C)C)c1O` [Propofol], the pEC50 at GABAA receptor is around 4.22. Further, the “ion channel modulation (TM3 / TM4 receptors), FIG. 2” value in data set [1] was “modulate both 3-transmembrane (TM3) and TM4 receptors”.

For the compound `FC1(F)C(F)(F)C(F)(Cl)C1(F)Cl` (centres unmarked) [1,2-dichlorohexafluorocyclobutane], the “depression of GABAA-dependent pyramidal cells” value in data set [2] was “fail to depress”. The “depression of NMDA-dependent CA1 neurons” value in [3] is on record as “fail to depress”. The “ion channel modulation (TM3 / TM4 receptors), FIG. 2” value in [1] is “modulate 4-transmembrane receptors (TM4) or neither receptor type”.

With `FC1CC(F)(F)C(F)(F)C1(F)F` (centres unmarked) [HFCP, 1,1,2,2,3,3,4-heptafluorocyclopentane], the “histopathology of heart, lung, kidney and liver” value in data set [4] is recorded as “no evidence of inflammation or toxicity”. For the same compound, the “time to awake after discontinuing administration” value with ND4 mice is recorded as “about 1 minute”. The “GABAA receptor modulation (in words)” value in data set [5] is reported as “potentiates GABAA”. Besides, the “inhibitory potassium channel modulation (in words)” value in data set [6] is “potentiates”. Moreover, the “glycine receptor modulation (in words)” value in the data set with glycine was “potentiates”. For the same compound, the “NMDA receptor modulation (in words)” value in data set [7] is listed as “no effect on NMDA receptors”.
